Laboratory results from US20050053611A1, “Pharmaceutical kit comprising anti-human seminal plasma protein single chain antibody/human carboxypeptidase fusion protein and prodrug” (priority 2001, published 2005).

Columns and labels:
[1] = system: PC cells (PC-3 and PC-3m); test: cell cycle kinetic analysis by flow cytometry; format: cell-based, human
Description: 3) Kinetic effects of the fusion protein/prodrug on the growth cycle of PC cells: PC-3 and PC-3m cells were added to several 10 ml culture flasks (10^6/ml). MTX, MTX-α-Arg, MTX-α-Phe+CP-A, MTX-α-Phe+fusion protein at different concentrations were added to the flasks, respectively. The cells were collected at 6 h, 16 h and 24 h after the addition of the tested drugs and washed twice with cold saline and then fixed with 950 ml/L ethanol. The cells were stained by routine DNA staining method. Flow cytometry was employed in the kinetic analysis (FACS Profile II; Laser rate: 15 mW; Green light filter: 488 nm).

[2] = system: PC cells (PC-3 and PC-3m); test: colony formation assay (soft agar culture); format: cell-based, human; conditions: 2 weeks
Description: 2) Colony formation assay. The colony formation assay was performed using soft agar culture method. 9 different groups were included in the assay: {circle over (1)}MTX+PC cell, {circle over (2)}MTX-α-Phe+PC cell, {circle over (3)}fusion protein+PC cell, {circle over (4)}MTX-α-Phe+CP-A+PC cell, {circle over (5)}MTX-α-Phe+fusion protein+PC cell, {circle over (6)}MTX-α-Arg+PC cell, {circle over (7)}MTX-α-Arg+CP-A+PC cell, {circle over (8)}MTX-α-Arg+fusion protein+PC cell and {circle over (9)}control group (PC cell only). All the tested prodrugs were used in three different concentrations, i.e. each of MTX, MTX-α-Phe and MTX-α-Arg was used at 0.4, 4, and 40 μg/ml. CP-A was used in a volume of 10 μl (2.5 mU/μl) and fusion protein was used in a volume of 10 μl (1 mg/ml). The density of PC cell was 200/well. The plate was incubated in a CO2 incubator at 37° C. for 2 weeks. After incubation, PC cells were fixed by a mixture of acetic acid and ethanol (1:3) for 2 h. Then microscopy was employed to calculate the percentage of colony formation.

PC-3m tumor = conditions: for histopathologic examination of tumors: after 5 weeks of treatment; for average survival time / lifespan: from beginning of treatment till natural death
Description: Tumor Model: BALB/C nude mice aged 4-6 weeks and weight at 16-20 g were provided by the Experimental Animal Center of the Fourth Military Medical University (Xi'an, China) and bred in a sterile isolator. They were derma-inoculated with 0.1 ml of PC-3m suspension (1×10^7 cells). The drugs were administrated when the volume of tumor was approximately 0.5 cm^3.
1) Groups and treatments. 56 nude mice carrying tumors were randomized into 7 groups: {circle over (1)}Control group, intravenously administered with 0.5 ml of saline; {circle over (2)}Treatment Group I, intravenously administered with MTX (5 mg/kg); {circle over (3)}Treatment Group II, intravenously administered with MTX-α-Phe (5.32 mg/kg) {circle over (4)}Treatment Group III, intravenously administered with 0.5 ml of anti-γ-SmMcAb-CP-A; {circle over (5)}Treatment Group IV, intravenously administered with 0.5 ml of the fusion protein; {circle over (6)}Treatment Group V, intravenously administered with 0.5 ml of γ-SmMcAb-CP-A first and MTX-α-Phe (5.32 mg/kg) 72 h later (ADEPT-1); {circle over (7)}Treatment Group VI, intravenously administered with 0.5 ml of the fusion protein first and MTX-α-Phe (5.32 mg/kg) 72 h later (ADEPT-2).
Tumor-inhibition rate: The major diameter and minor diameter of the tumor were measured every week after the administration of drugs. The mass of tumor (m=½×major diameter×minor diameter^2) and tumor-inhibition rate (TIR) was thus calculated according the following formula. [formula]
Cell cycle of tumor cells is calculated by the formula: tc=[lg(1+G)/lg(m2/m1)]×t (G: a component of the tumor growth group; m2, m1: tumor mass of a given component of the group observed at different time points; t: interval between observations).
Survival time of the nude mice refers to the period from the beginning of the treatment till natural death.
Histopathologic observation includes gross specimen examination and microscopic examination. Samples of tumor and organs were fixed with 100 ml/L formalin. Pathologic section was stained […] underwent microscopy observation.

[3] = system: PC cells (PC-3 and PC-3m); format: cell-based; conditions: MTT, 48 h; for lethal / cytotoxic effect to PC cells: lethal curves
Description: 1) MTT assay: PC-3 and PC-3m cells were seeded separately to a 96-well plate at 1×10^4 cells/ml/well. MTX, MTX-α-Phe, MTX-α-Phe+CP-A, MTX-α-Phe+fusion proteins and MTX-α-Arg, MTX-α-Arg+fusion proteins at different concentrations were also added into those wells. 3 parallel wells were set for each concentration. The cells were incubated in a CO2 incubator for 48 h. 20 μl of a solution of thiazole blue in PBS (5 mg/ml) was added to each well and incubated at 37° C. for 4 h. The culture medium and free thiazole blue were discarded and 0.1 ml of dimethylsulfoxide was added to each well. The absorbance at 405 nm was measured and mortality rate was calculated.

Compound	cell proliferation index [1]	colony formation ([2]; P<0.001)	histopathologic examination of tumors (PC-3m tumor)	volume of tumors (PC-3m tumor; by the 6th week)	average survival time / lifespan (PC-3m tumor)	growth of tumors (PC-3m tumor; from the 2nd week on)	living quality of mice (PC-3m tumor; mouse, in vivo)	tumor cell growth cycle (PC-3m tumor; mouse, in vivo)	whole blood count (PC-3m tumor; mouse, in vivo)	colony-formation rate [2]	lethal / cytotoxic effect to PC cells [3]	kinetic change of cell cycle [1]	tumor size compared with control (PC-3m tumor; P>0.05)	IC50 ([3]; PC cells, read-out: IC50 of the prodrug)
CN(Cc1cnc2nc(N)nc(N)c2n1)c1ccc(C(=O)N[C@@H](CCC(=O)O)C(=O)O)cc1 [MTX, Methotrexate]	decreased significantly	none of these groups had any colony formed	a large area of necrosis in the tumors	significantly smaller than that in other groups	67 ± 13.8 days	decreased	poor living quality	2.5±0.2	significantly lower than that of the ADEPT groups	–	–	–	–	–
CN(Cc1cnc2nc(N)nc(N)c2n1)c1ccc(C(=O)NC(CCC(=O)O)C(=O)NC(CCCNC(=N)N)C(=O)O)cc1 (stereo not drawn) [MTX-α-Arg]	–	–	–	–	–	–	–	–	–	91%	no lethal effect	–	–	–
CN(Cc1cnc2nc(N)nc(N)c2n1)c1ccc(C(=O)N[C@@H](CCC(=O)O)C(=O)N[C@@H](Cc2ccccc2)C(=O)O)cc1 [MTX-α-Phe, methotrexate-α-phenylalanine]	–	–	characteristics typical of adenocarcinoma	–	31 ± 12.2 days	–	–	1.7±0.2	–	88%	no lethal effect	did not show any significant kinetic change	small compared with that of the control but the difference was not significant	72 mM
